From ChEMBL document CHEMBL4043212, “Design, synthesis and biological evaluation of 1,3-diphenylbenzo[f][1,7]naphthyrdines” (2017)
Values belong to the compound of their own block, whether it stands above or below them.

Columns and labels:
NUGC-3 = experiment: Cytotoxicity against human NUGC3 cells assessed as inhibition of cell growth incubated for 72 hrs by SRB assay; type: functional
PC-3 = experiment: Cytotoxicity against human PC3 cells assessed as inhibition of cell growth incubated for 72 hrs by SRB assay; type: functional
ACHN = experiment: Cytotoxicity against human ACHN cells assessed as inhibition of cell growth incubated for 72 hrs by SRB assay; type: functional
MDA-MB-231 = experiment: Cytotoxicity against human MDA-MB-231 cells assessed as inhibition of cell growth incubated for 72 hrs by SRB assay; type: functional
NCI-H23 = experiment: Cytotoxicity against human NCI-H23 cells assessed as inhibition of cell growth incubated for 72 hrs by SRB assay; type: functional
HCT-15 = experiment: Cytotoxicity against human HCT15 cells assessed as inhibition of cell growth incubated for 72 hrs by SRB assay; type: functional
[1] = biological target: DNA topoisomerase 2-alpha (Homo sapiens) (UniProt P11388); experiment: Potency index, ratio of inhibitory activity of etoposide to test compound for inhibition of human topoisomerase-2 alpha at 20 uM using supercoiled pBR322 DNA as substrate after 30 mins by ethidium bromide staining based agarose gel electrophoresis method relative to control
DNA topoisomerase 2-alpha (Homo sapiens), sequence (P11388 whole entry): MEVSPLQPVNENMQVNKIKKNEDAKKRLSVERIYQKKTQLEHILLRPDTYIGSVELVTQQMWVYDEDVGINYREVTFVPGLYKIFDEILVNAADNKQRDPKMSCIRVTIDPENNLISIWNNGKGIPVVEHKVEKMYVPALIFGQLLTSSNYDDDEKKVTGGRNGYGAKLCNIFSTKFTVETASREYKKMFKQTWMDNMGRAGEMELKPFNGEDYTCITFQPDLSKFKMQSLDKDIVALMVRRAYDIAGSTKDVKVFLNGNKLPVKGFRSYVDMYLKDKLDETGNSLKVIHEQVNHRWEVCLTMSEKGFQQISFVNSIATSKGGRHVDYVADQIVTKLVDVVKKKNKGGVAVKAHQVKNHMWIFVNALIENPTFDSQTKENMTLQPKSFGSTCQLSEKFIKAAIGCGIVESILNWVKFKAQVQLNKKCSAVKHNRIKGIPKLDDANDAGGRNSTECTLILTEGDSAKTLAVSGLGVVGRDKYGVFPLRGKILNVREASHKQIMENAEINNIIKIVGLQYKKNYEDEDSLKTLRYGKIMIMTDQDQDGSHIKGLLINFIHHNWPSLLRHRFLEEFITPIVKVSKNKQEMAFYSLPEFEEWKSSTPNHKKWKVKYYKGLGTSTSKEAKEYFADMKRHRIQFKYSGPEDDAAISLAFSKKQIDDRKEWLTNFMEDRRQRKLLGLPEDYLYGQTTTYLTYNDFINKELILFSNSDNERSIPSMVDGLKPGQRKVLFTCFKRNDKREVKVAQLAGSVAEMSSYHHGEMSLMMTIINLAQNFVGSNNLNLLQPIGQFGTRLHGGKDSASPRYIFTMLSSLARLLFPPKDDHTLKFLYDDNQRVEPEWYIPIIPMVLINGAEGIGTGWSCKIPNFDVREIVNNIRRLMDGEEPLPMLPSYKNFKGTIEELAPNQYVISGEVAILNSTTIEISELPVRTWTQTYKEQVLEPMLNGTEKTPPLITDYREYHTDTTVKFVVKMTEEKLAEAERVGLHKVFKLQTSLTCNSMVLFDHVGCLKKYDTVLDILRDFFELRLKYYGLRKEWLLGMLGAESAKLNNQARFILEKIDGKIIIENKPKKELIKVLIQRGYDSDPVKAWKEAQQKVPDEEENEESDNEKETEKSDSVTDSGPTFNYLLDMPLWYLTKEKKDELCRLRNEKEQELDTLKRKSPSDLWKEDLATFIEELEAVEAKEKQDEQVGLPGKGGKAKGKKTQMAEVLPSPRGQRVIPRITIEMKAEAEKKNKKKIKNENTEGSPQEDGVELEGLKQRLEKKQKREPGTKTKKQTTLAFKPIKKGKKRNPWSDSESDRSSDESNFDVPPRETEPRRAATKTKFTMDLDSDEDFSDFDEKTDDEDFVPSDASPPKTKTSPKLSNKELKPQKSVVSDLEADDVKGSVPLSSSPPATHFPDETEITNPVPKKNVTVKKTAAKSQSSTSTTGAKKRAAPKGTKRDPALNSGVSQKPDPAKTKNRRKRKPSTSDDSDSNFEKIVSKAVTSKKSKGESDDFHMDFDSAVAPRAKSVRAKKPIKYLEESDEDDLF

[2] = biological target: DNA topoisomerase 2-alpha (Homo sapiens) (UniProt P11388); experiment: Potency index, ratio of inhibitory activity of etoposide to test compound for inhibition of human topoisomerase-2 alpha at 100 uM using supercoiled pBR322 DNA as substrate after 30 mins by ethidium bromide staining based agarose gel electrophoresis method relative to control
[3] = biological target: DNA topoisomerase 2-alpha (Homo sapiens) (UniProt P11388); experiment: Inhibition of human topoisomerase-2 alpha assessed as reduction in conversion of super coiled plasmid DNA to relaxed DNA at 100 uM using supercoiled pBR322 DNA as substrate after 30 mins by ethidium bromide staining based agarose gel electrophoresis method relative to control
[4] = biological target: DNA topoisomerase 2-alpha (Homo sapiens) (UniProt P11388); experiment: Inhibition of human topoisomerase-2 alpha assessed as reduction in conversion of super coiled plasmid DNA to relaxed DNA at 20 uM using supercoiled pBR322 DNA as substrate after 30 mins by ethidium bromide staining based agarose gel electrophoresis method relative to control

Structure (SMILES): COc1ccc(-c2cc(-c3ccc(Br)cc3)nc3cnc4ccccc4c23)cc1
GI50 (NUGC-3; Homo sapiens, NUGC-3, 72 h): 1.85 µM
GI50 (PC-3; Homo sapiens, PC-3, 72 h): 6.75 µM
GI50 (ACHN; Homo sapiens, ACHN, 72 h): 4.95 µM
GI50 (MDA-MB-231; Homo sapiens, MDA-MB-231, 72 h): 2.58 µM
GI50 (NCI-H23; Homo sapiens, NCI-H23, 72 h): 1.62 µM
GI50 (HCT-15; Homo sapiens, HCT-15, 72 h): 1.97 µM

Structure (SMILES): CCCCCCn1cc(-c2cc(-c3ccc(OC)cc3)c3c(cnc4ccccc43)n2)c2ccccc21
GI50 (NUGC-3; Homo sapiens, NUGC-3, 72 h): > 10 µM
GI50 (PC-3; Homo sapiens, PC-3, 72 h): > 10 µM
GI50 (ACHN; Homo sapiens, ACHN, 72 h): > 10 µM
GI50 (MDA-MB-231; Homo sapiens, MDA-MB-231, 72 h): > 10 µM
GI50 (NCI-H23; Homo sapiens, NCI-H23, 72 h): > 10 µM
GI50 (HCT-15; Homo sapiens, HCT-15, 72 h): > 10 µM

Structure (SMILES): COc1ccc(-c2cc(-c3ccc(C(F)(F)F)cc3C(F)(F)F)nc3cnc4ccccc4c23)cc1
GI50 (NUGC-3; Homo sapiens, NUGC-3, 72 h): > 10 µM
GI50 (PC-3; Homo sapiens, PC-3, 72 h): > 10 µM
GI50 (ACHN; Homo sapiens, ACHN, 72 h): > 10 µM
GI50 (MDA-MB-231; Homo sapiens, MDA-MB-231, 72 h): > 10 µM
GI50 (NCI-H23; Homo sapiens, NCI-H23, 72 h): > 10 µM
GI50 (HCT-15; Homo sapiens, HCT-15, 72 h): > 10 µM

Structure (SMILES): COc1ccc(-c2cc(-c3cccc4ccccc34)nc3cnc4ccccc4c23)cc1
GI50 (NUGC-3): 1.68 µM
GI50 (PC-3): 1.57 µM
GI50 (ACHN): 2.25 µM
GI50 (MDA-MB-231): 1.51 µM
GI50 (NCI-H23): 1.81 µM
GI50 (HCT-15): 1.98 µM

Ratio [1]: 1.2
Ratio [2]: 1.3
inhibition [3]: 91.3%
inhibition [4]: 42.4%
Structure (SMILES): COc1ccc(-c2cc(-c3ccc(N(C)C)cc3)nc3cnc4ccccc4c23)cc1
GI50 (NUGC-3; Homo sapiens, NUGC-3, 72 h): 1.95 µM
GI50 (PC-3; Homo sapiens, PC-3, 72 h): 2.98 µM
GI50 (ACHN; Homo sapiens, ACHN, 72 h): 1.98 µM
GI50 (MDA-MB-231; Homo sapiens, MDA-MB-231, 72 h): 2.3 µM
GI50 (NCI-H23; Homo sapiens, NCI-H23, 72 h): 1.72 µM
GI50 (HCT-15; Homo sapiens, HCT-15, 72 h): 1.86 µM

Structure (SMILES): CCn1cc(-c2cc(-c3ccc(OC)cc3)c3c(cnc4ccccc43)n2)c2ccccc21
GI50 (NUGC-3; Homo sapiens, NUGC-3, 72 h): 3.03 µM
GI50 (PC-3; Homo sapiens, PC-3, 72 h): 6.15 µM
GI50 (ACHN; Homo sapiens, ACHN, 72 h): 5.61 µM
GI50 (MDA-MB-231; Homo sapiens, MDA-MB-231, 72 h): 3.04 µM
GI50 (NCI-H23; Homo sapiens, NCI-H23, 72 h): 2.07 µM
GI50 (HCT-15; Homo sapiens, HCT-15, 72 h): 4.88 µM

Structure (SMILES): COc1ccc(-c2cc(-c3ccc(OC)cc3)c3c(cnc4ccccc43)n2)cc1
GI50 (NUGC-3; Homo sapiens, NUGC-3, 72 h): > 10 µM
GI50 (PC-3; Homo sapiens, PC-3, 72 h): > 10 µM
GI50 (ACHN; Homo sapiens, ACHN, 72 h): > 10 µM
GI50 (MDA-MB-231; Homo sapiens, MDA-MB-231, 72 h): > 10 µM
GI50 (NCI-H23; Homo sapiens, NCI-H23, 72 h): > 10 µM
GI50 (HCT-15; Homo sapiens, HCT-15, 72 h): > 10 µM

Structure (SMILES): COc1ccc(-c2cc(-c3ccccc3Cl)nc3cnc4ccccc4c23)cc1
GI50 (NUGC-3; Homo sapiens, NUGC-3, 72 h): 3 µM
GI50 (PC-3; Homo sapiens, PC-3, 72 h): 4.46 µM
GI50 (ACHN; Homo sapiens, ACHN, 72 h): 3.27 µM
GI50 (MDA-MB-231; Homo sapiens, MDA-MB-231, 72 h): 3.32 µM
GI50 (NCI-H23; Homo sapiens, NCI-H23, 72 h): 2.55 µM
GI50 (HCT-15; Homo sapiens, HCT-15, 72 h): 2.15 µM

Structure (SMILES): COc1ccc(-c2c(C)c(-c3ccccc3Br)nc3cnc4ccccc4c23)cc1
GI50 (NUGC-3; Homo sapiens, NUGC-3, 72 h): > 10 µM
GI50 (PC-3; Homo sapiens, PC-3, 72 h): > 10 µM
GI50 (ACHN; Homo sapiens, ACHN, 72 h): > 10 µM
GI50 (MDA-MB-231; Homo sapiens, MDA-MB-231, 72 h): > 10 µM
GI50 (NCI-H23; Homo sapiens, NCI-H23, 72 h): > 10 µM
GI50 (HCT-15; Homo sapiens, HCT-15, 72 h): > 10 µM

Structure (SMILES): COc1ccc(-c2cc(-c3ccccc3Br)nc3cnc4ccccc4c23)cc1
GI50 (NUGC-3; Homo sapiens, NUGC-3, 72 h): > 10 µM
GI50 (PC-3; Homo sapiens, PC-3, 72 h): > 10 µM
GI50 (ACHN; Homo sapiens, ACHN, 72 h): > 10 µM
GI50 (MDA-MB-231; Homo sapiens, MDA-MB-231, 72 h): > 10 µM
GI50 (NCI-H23; Homo sapiens, NCI-H23, 72 h): > 10 µM
GI50 (HCT-15; Homo sapiens, HCT-15, 72 h): > 10 µM

Structure (SMILES): COc1cccc2c1C(=O)c1c(O)c3c(c(O)c1C2=O)C[C@@](O)(C(=O)CO)C[C@@H]3O[C@H]1C[C@H](N)[C@H](O)[C@H](C)O1 [DOXORUBICIN]
GI50 (NUGC-3; Homo sapiens, NUGC-3, 72 h): 0.086 µM
GI50 (PC-3; Homo sapiens, PC-3, 72 h): 0.076 µM
GI50 (ACHN; Homo sapiens, ACHN, 72 h): 0.08 µM
GI50 (MDA-MB-231; Homo sapiens, MDA-MB-231, 72 h): 0.068 µM
GI50 (NCI-H23; Homo sapiens, NCI-H23, 72 h): 0.09 µM
GI50 (HCT-15; Homo sapiens, HCT-15, 72 h): 0.077 µM
